Columns and labels:
[1] = tested on: isolated rat soleus muscles; assay: Recovery of nerve-stimulated force in isolated rat soleus muscles exposed to 3.5 mM Mg2+; type: cell-based; details: 3.5 mM Mg2+, after 70 min at elevated Mg2+
Description: Experiments were performed using rat soleus muscles from either young (4-wk-old) or adult Wistar rats (12-14-week-old). Animal handling, killing and isolation of muscle is described elsewhere All experiments were performed using normal Krebs-Ringer bicarbonate solution (NKR). In solutions with elevated Mg^2+, MgCl2 was added to NKR-solution causing minor increases in osmolarity and ionic strength. In solutions with elevated K^+, 4 mM NaCl was replaced by 4 mM KCl in the NKR.
The aim was to find compounds that by inhibition of CIC-1 channels can recover nerve-stimulated force under conditions of fatigue including conditions where fatigue is caused by compromised neuromuscular transmission. Neuromuscular transmission dysfunction can develop because of both pre- and/or post-synaptic complications in connection with a disorder or as part of neuromuscular blockade during/after surgery. In the initial series of drug testing, experiments were performed with isolated muscles in the presence of sub-maximal ACh receptor antagonist tubocurarine. […] To mimic conditions with pre-synaptic complication (Lambert Eaton syndrome, motor neuron disorder, polyneuropathy) the intact nerve-muscle preparations were incubated at elevated extracellular Mg^2+, which is known to suppress release of ACh from nerve terminals of motor neurons.

rat soleus muscles [2] = assay: Mg2+ concentration required to depress nerve-stimulated force by 50% (Kd,Mg2+), combination with 3,4-AP; type: cell-based; details: combination of C8 and 3,4-diaminopyridine; elevated extracellular Mg2+
Description: FIGS. 6A-6E. […] Muscles from 4-week-old rats were stimulated to contract by activating the motor nerve with short duration pulses in field stimulation. Muscles contracted every 10 min for 2 s in response to 30 Hz stimulation. Four different experimental conditions were used. […] C) similar to A) but this muscle had been pre-incubated with 3,4-AP. […] The force integral (AUC) was determined at each extracellular Mg^2+ concentration. AUC was plotted against Mg^2+ concentration and the data was fitted to a sigmoidal function. This provided the extracellular Mg^2+ concentration that was required to reduce the nerve-stimulated force to 50% (Mg50) under the four different conditions (see Table 5).
While the use of tubocurarine mimics conditions with reduced neuromuscular transmission due to post-synaptic dysfunction (myasthenia gravis, neuromuscular blockade), the experiments with elevated extracellular Mg^2+ mimics conditions with pre-synaptic dysfunction akin to a range of neuromuscular disorders including Lambert Eaton syndrome, motor neuron disorders and polyneuropathy. […] Based on this it was determined whether recovery of nerve-stimulated force at elevated extracellular Mg^2+ with CIC-1 inhibiting compounds could be added to force recovery with 3,4-AP. […] To quantify the effect of compounds on Mg^2+ sensitivity the force at the different Mg^2+ concentrations was determined. […]

[3] = Pharmacokinetic analysis of C8 in rats, single I.P. dose; type: in vivo, rat; details: one-bolus I.P. injection
Description: This part of the study was performed by Pipeline Biotech A/S (Spørring, Denmark). […] Plasma concentrations (free and bound) were determined by OnTarget Chemistry (Uppsala, Sweden, Project No.: PB243-001).
Before conducting in vivo experiments with animal models of myasthenia gravis, some pharmacokinetic details were obtained for C8 in response to one-bolus I.P. injection.

rat soleus muscles [4] = type: cell-based; details: 10 and 25 μM C8; 1 μM μ-conotoxin GiiiB; vs control conditions
isolated human muscles = type: cell-based; details: 150 μM C8; elevated extracellular K+ and low dose TTX
[5] = tested on: isolated rat soleus muscles; assay: Recovery of nerve-stimulated force in isolated rat soleus muscles with ACh receptors inhibited by 2 μM rocuronium; type: cell-based; details: 50 μM C8 added after 2 μM rocuronium had reduced force to 51±5%; 8 muscles; p<0.01
Description: In a separate series of experiments with 8 isolated rat soleus muscles, ACh receptors were inhibited using 2 μM rocuronium, which is a clinically used neuromuscular blocking agent. Under these conditions the nerve-stimulated force was reduced to 51±5% of force before rocuronium. […] This illustrates the potential of these compounds to be used as reversal agents.

CIC-1 channels = molecular target: T1, CIC-1 channels (Rattus norvegicus, UniProt P35524); assay: Electrophysiological measurement of compound inhibition of CIC-1 in rat muscle (Gm, EC50); type: cell-based; details: rat soleus muscle fibres, three micro-electrode Gm measurement; read-out: EC50 (inhibition of ClC-1 ion channel, Gm)
T1 construct: Gm was measured in individual fibres of whole rat soleus muscles; from tissue; host or cells: soleus muscle of adult (12-14 week old) Wistar rats
T1 sequence (P35524 1-994): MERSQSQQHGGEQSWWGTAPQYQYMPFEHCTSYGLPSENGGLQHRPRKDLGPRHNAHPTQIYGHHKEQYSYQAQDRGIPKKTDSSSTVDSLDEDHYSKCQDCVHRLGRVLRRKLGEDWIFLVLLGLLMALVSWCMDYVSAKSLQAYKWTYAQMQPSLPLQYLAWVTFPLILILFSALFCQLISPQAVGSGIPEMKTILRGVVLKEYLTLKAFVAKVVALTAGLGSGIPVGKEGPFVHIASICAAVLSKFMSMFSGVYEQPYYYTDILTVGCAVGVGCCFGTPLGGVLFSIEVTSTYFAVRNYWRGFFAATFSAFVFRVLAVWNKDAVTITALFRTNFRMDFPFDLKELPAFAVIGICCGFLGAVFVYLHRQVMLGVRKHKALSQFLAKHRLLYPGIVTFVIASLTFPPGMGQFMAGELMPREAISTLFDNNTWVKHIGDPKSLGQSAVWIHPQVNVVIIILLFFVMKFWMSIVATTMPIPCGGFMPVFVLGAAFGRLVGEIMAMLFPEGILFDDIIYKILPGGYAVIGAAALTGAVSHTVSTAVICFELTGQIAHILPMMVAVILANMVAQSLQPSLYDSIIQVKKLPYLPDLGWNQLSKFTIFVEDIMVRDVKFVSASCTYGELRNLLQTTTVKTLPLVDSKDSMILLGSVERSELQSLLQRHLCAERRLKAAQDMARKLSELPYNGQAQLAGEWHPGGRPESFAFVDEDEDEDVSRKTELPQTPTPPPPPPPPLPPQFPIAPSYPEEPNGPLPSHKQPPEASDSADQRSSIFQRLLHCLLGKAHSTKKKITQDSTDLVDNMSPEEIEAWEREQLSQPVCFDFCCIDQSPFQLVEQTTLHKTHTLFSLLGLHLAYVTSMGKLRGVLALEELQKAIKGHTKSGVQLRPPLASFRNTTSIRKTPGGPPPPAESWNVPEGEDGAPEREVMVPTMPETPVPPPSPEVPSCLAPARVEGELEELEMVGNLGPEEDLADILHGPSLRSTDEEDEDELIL

| Molecule | 50 μM % change after addition (AUC of nerve-stimulated force) ([1]; 50 μM compound) | 100 μM % change after addition (AUC of nerve-stimulated force) ([1]; 100 μM compound) | effect on recovery of neuromuscular transmission (rat soleus muscles [2]) | Cl_obs [3] | VD_obs [3] | EPP amplitude (rat soleus muscles [4]) | contractile force (isolated human muscles) | nerve-stimulated contractile force recovered to % of force before rocuronium [5] | EC50 (CIC-1 channels) |
| --- | --- | --- | --- | --- | --- | --- | --- | --- | --- |
| C[C@H](Oc1ccc(Br)cc1)C(=O)O [Compound C8, (2S)-2-(4-bromophenoxy)propanoic acid] | 13 ± 4% | 26 ± 5% | unexpected synergistic effect | 48.69 mL/h | 259.62 mL | significantly larger EPPs | markedly recovery | 81±4% |  |
| (2S)-2-(4-bromophenoxy)(2-^2H)butanoic acid [Compound A-60] |  |  |  |  |  |  |  |  | 7.5 ± 1 µM |
